# From patent US5707989A, “Pyrimido[5,4-D]pyrimidines, medicaments comprising these compounds, their use and processes for their preparation” (Dr. Karl Thomae GmbH, priority 1994, dated 1998)
# What was measured:
# F/L-HERc cells = experiment: Inhibition of IL-3-dependent proliferation of F/L-HERc cells; type: cell-based; settings: Mus musculus, murine IL-3, 48 hours
# Text: (§1) The inhibition of EGF-R-mediated signal transmission can be detected, for example, with cells which express human EGF-R, the survival and proliferation of which depend on stimulation by EGF or TGF-alpha. An interleukin-3 (IL-3)-dependent cell line of murine origin which was changed genetically such that it expresses functional human EGF-R was used here. The proliferation of these cells, called F/L-HERc, can therefore be stimulated either by murine IL-3 or by EGF (see von Ruden, T. et al. in EMBO J. 7, 2749-2756 (1988) and Pierce, J. H. et al. in Science 239, 628-631 (1988)).
# (§2) The starting material used for the F/L-HERc cells was the cell line FDC-P1, the preparation of which has been described by Dexter, T. M. et al. in J. Exp. Med. 152, 1036-1047 (1980). Alternatively, however, other growth factor-dependent cells can also be used (see, for example, Pierce, J. H. et al. in Science 239, 628-631 (1988), Shibuya, H. et al. in Cell 70, 57-67 (1992) and Alexander, W. S. et al. in EMBO J. 10, 3683-3691 (1991)). Recombinant retroviruses were used for expression of the human EGF-R cDNA (see Ullrich, A. et al. in Nature 309, 418-425 (1984)), as described in yon Ruden, T. et al., EMBO J. 7, 2749-2756 (1988), with the difference that the retroviral vector LXSN (see Miller, A. D. et al. in BioTechniques 7, 980-990 (1989)) was used for expression of the EGF-R cDNA and the line GP+E86 (see Markowitz, D. et al. in J. Virol. 62, 1120-1124 (1988)) was used as the packing cell.
# (§3) The test was carried out as follows:
# (§4) F/L HERc cells were cultured at 37° C. and 5% CO2 in RPMI/1640 medium (BioWhittaker), supplemented with 10% foetal bovine serum (FCS, Boehringer Mannheim), 2 mM glutamine (BioWhittaker), standard antibiotics and 20 ng/ml of human EGF (Promega). For investigation of the inhibitory activity of the compounds according to the invention, 1.5×10^4 cells per well were cultured in triplicate in 96-well plates in the above medium (200 μl), proliferation of the cells being stimulated with either EGF (20 ng/ml) or murine IL-3. Culture stocks of the cell line X63/0 mIL-3 were used as the source for IL-3 (see Karasuyama, H. et al. in Eur. J. Immunol. 18, 97-104 (1988)). The compounds according to the invention were dissolved in 100% dimethyl sulphoxide (DMSO) and added to the cultures in various dilutions, the maximum DMSO concentration being 1%. The cultures were incubated at 37° C. for 48 hours.
# (§5) To determine the inhibitory activity of the compounds according to the invention, the relative cell count was measured in OD units with Cell Titer 96™ Aqueous Non-Radioactive Cell Proliferation Assay (Promega). The relative cell count was calculated in per cent of the control (F/LHERc cells without inhibitor) and the active compound concentration which inhibits the proliferation of the cells to 50% (IC50) was deduced.
# human EGF-R = biological target: T1, human EGF-R (Homo sapiens, UniProt P00533); experiment: Inhibition of EGF-dependent proliferation of F/L-HERc cells; type: cell-based; settings: human EGF 20 ng/ml, 48 hours
# T1 construct: expressed in transfected cells; host or cells: F/L-HERc cells: murine IL-3-dependent line FDC-P1 infected with recombinant retrovirus (LXSN vector, GP+E86 packaging line) carrying human EGF-R cDNA
# T1 sequence (P00533 25-1210): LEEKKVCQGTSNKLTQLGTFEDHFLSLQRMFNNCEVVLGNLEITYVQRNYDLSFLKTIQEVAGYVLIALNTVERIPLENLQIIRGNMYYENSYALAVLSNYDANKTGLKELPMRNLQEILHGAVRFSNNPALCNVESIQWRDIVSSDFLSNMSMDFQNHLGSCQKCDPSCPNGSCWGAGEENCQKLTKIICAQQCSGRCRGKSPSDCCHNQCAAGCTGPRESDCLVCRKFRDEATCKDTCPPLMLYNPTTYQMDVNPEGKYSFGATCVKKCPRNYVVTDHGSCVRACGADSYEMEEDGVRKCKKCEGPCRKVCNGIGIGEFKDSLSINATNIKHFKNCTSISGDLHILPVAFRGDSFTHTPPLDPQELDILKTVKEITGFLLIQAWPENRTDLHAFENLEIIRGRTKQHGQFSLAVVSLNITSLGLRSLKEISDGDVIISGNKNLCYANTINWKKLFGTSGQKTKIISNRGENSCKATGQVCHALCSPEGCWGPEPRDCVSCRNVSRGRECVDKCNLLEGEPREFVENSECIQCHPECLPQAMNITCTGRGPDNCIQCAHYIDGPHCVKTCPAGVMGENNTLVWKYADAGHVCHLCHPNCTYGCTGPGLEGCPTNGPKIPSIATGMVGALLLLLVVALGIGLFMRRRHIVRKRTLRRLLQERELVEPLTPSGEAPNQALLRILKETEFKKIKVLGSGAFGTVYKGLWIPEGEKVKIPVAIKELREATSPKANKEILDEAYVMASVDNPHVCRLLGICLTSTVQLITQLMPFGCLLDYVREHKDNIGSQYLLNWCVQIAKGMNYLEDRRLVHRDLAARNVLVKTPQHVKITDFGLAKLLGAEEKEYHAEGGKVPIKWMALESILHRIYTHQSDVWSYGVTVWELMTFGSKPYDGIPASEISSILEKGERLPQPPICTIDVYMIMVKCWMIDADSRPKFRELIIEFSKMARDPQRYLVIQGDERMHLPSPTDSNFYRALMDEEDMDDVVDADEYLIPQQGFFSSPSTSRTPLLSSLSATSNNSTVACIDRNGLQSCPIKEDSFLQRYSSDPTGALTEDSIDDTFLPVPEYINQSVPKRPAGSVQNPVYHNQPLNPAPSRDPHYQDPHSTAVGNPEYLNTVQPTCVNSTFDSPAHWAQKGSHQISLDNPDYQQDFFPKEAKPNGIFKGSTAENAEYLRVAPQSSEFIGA
# Text: as §1, §2, §3, §4, §5
IC50 (human EGF-R) [nM],SMILES,IC50 (F/L-HERc cells) [nM]
900,Cc1cccc(Nc2ncnc3cnc(NCC4COCCOCCOCCOCCO4)nc23)c1 (centres unmarked) [1(197)],10000
32,"N#Cc1cc(Nc2ncnc3cnc(N[C@H]4CC[C@H](O)CC4)nc23)ccc1N [1(201), 4-[(4-Amino-3-cyano-phenyl)amino]-6-[(trans-4-hydroxycyclohexyl)-amino]-pyrimido[5,4-d]pyrimidine]",> 10000
25,"C#CCNc1ncc2ncnc(Nc3cccc(C)c3)c2n1 [1(23), 4-[(3-Methylphenyl)amino]-6-(propargylamino)-pyrimido[5,4-d]pyrimidine]",> 3000
8,"Fc1ccc(Nc2ncnc3cnc(NCCN4CCOCC4)nc23)cc1Cl [1(129), 4-[(3-Chloro-4-fluoro-phenyl)amino]-6-[2-(morpholino)-ethylamino]-pyrimido[5,4-d]pyrimidine]",> 20000
2,"Nc1c(Cl)cc(Nc2ncnc3cnc(N[C@H]4CC[C@H](O)CC4)nc23)cc1Cl [1(207), 4-[(4-Amino-3,5-dichloro-phenyl)amino]-6-[(trans-4-hydroxycyclohexyl)-amino]-pyrimido[5,4-d]pyrimidine]",> 10000
5,"CC(CO)(CO)Nc1ncc2ncnc(Nc3ccc(Cl)c(F)c3)c2n1 [1(183), 4-[(4-Chloro-3-fluoro-phenyl)amino]-6-(1,3-dihydroxy-2-methyl-2-propylamino)-pyrimido[5,4-d]pyrimidine]",> 20000
2,"O[C@H]1CC[C@H](Nc2ncc3ncnc(Nc4cccc(Cl)c4)c3n2)CC1 [1(110), 4-[(3-Chlorophenyl)amino]-6-[(trans-4-hydroxycyclohexyl)amino]pyrimido[5,4-d]pyrimidine]",> 10000
2500,"Cc1cccc(Nc2ncnc3cnc(N4CCN(c5ccccc5)CC4)nc23)c1 [1(3), 4-[(3-Methylphenyl)amino]-6-(1-phenyl-4-piperazinyl)-pyrimido[5,4-d]pyrimidine]",> 10000
15,"Cc1cccc(Nc2ncnc3cnc(NC4CCC(=O)CC4)nc23)c1 [1(109), 4-[(3-Methylphenyl)amino]-6-[(4-oxo-cyclohexyl)amino]pyrimido[5,4-d]pyrimidine]",10000
50,"Fc1cc(F)cc(Nc2ncnc3cnc(NC4CC4)nc23)c1 [3(5), 4-[(3,5-Difluorophenyl)amino]-6-(cyclopropylamino)-pyrimido[5,4-d]pyrimidine]",> 3000
20,"O=[N+]([O-])c1cccc(Nc2ncnc3cnc(NC4CC4)nc23)c1 [3(45), 4-[(3-Nitrophenyl)amino]-6-(cyclopropylamino)-pyrimido[5,4-d]pyrimidine]",> 1000
500,"CCN(CC)c1ncc2ncnc(Nc3cccc(C)c3)c2n1 [1(10), 4-[(3-Methylphenyl)amino]-6-(diethylamino)-pyrimido[5,4-d]pyrimidine]",> 10000
32,"Cc1cccc(Nc2ncnc3cnc(N4CCC(N)CC4)nc23)c1 [1(61), 4-[(3-Methylphenyl)amino]-6-(4-amino-1-piperidinyl)-pyrimido[5,4-d]pyrimidine]",9000
20,"Cc1cccc(Nc2ncnc3cnc(NC(C)CO)nc23)c1 (centres unmarked) [1(58), 4-[(3-Methylphenyl)amino]-6-(1-hydroxy-2-propylamino)pyrimido[5,4-d]pyrimidine]",> 3000
0.8,"O[C@H]1CC[C@H](Nc2ncc3ncnc(Nc4ccc(F)c(Cl)c4)c3n2)CC1 [1(204), 4-[(3-Chloro-4-fluoro-phenyl)amino]-6-[(trans-4-hydroxycyclohexyl)-amino]-pyrimido[5,4-d]pyrimidine]",> 10000
50,"FC(F)(F)Oc1cccc(Nc2ncnc3cnc(NC4CC4)nc23)c1 [3(18), 4-[(3-Trifluoromethoxyphenyl)amino]-6-(cyclopropylamino)-pyrimido[5,4-d]pyrimidine]",> 3000
